The values below come from EP2014284A1, “Pharmaceutical compositions and uses” (NOVARTIS AG, priority 2007, dated 2009).

The test system of the data set is hypertensive OA patients. An excerpt:
Method: A 4-week, multicenter, randomized, double-blind, double-dummy, parallel group study of hypertensive OA patients aged ≥50 years (office BP ≤140/90 mmHg) on stable antihypertensive treatment. […] The primary outcome measure was the change from baseline (BL) at Week 4 in 24-hour mean ambulatory systolic BP (MASBP) in the intent-to-treat (ITT) population using ANCOVA. The secondary analyses included 24-hour mean ambulatory diastolic BP (MADBP […]. In addition, a post-hoc subgroup analysis was performed to evaluate the primary and secondary analysis at Week 4 (using ANCOVA) for patients exclusively on ACE inhibitors as antihypertensive drug.

[1] abbreviates: change from baseline, lumiracoxib (n=140) vs ibuprofen (n=132), patients exclusively on ACE-inhibitors, p<0.001.

SMILES strings stand for the structures. Marks after values point to notes of the source that are not given here.

For `CC(C)Cc1ccc(C(C)C(=O)O)cc1` (stereo not shown) [ibuprofen], the “increase in MASBP” value (change from BL at Week 4, 24-hour MASBP, ibuprofen 600 mg tid) worked out at 2.2 mmHg.

As for `Cc1ccc(Nc2c(F)cccc2Cl)c(CC(=O)O)c1` [lumiracoxib, 5-methyl-2-(2'-chloro-6'-fluoroanilino)phenylacetic acid], the “decrease in MASBP” value (change from BL at Week 4, 24-hour MASBP, lumiracoxib 100 mg od) came to 2.7 mmHg. Moreover, under setting [1], the “24 h MADBP Difference in LSM (95% CI)” value is listed as -3.9 (-5.1,-2.7)* and the “24 h MASBP Difference in LSM (95% CI)” value is recorded as -7.5 (-9.6, -5.5)*. Also, for the setting “human, in vivo, 4 weeks”, the “Clinically relevant increase (>= 5 mm Hg increase in 24 h MADBP and/or >= 10 mm Hg increase in 24h MASBP), number of patients” value is listed as 13 patients and the “Clinically relevant increase (>= 5 mm Hg increase in 24 h MADBP and/or >= 10 mm Hg increase in 24h MASBP), share of patients” value came out at 9.3%. Also, the “24-hour MADBP, estimated treatment difference” value (lumiracoxib 100 mg od vs ibuprofen 600 mg tid, Week 4, [95% CI: -2.7, -1.3], p<0.001) is -2 mmHg.
